Biological target: T1, cedar pollen allergen (Cry j1) (Cryptomeria japonica, UniProt P18632)
T1 sequence (P18632 22-374): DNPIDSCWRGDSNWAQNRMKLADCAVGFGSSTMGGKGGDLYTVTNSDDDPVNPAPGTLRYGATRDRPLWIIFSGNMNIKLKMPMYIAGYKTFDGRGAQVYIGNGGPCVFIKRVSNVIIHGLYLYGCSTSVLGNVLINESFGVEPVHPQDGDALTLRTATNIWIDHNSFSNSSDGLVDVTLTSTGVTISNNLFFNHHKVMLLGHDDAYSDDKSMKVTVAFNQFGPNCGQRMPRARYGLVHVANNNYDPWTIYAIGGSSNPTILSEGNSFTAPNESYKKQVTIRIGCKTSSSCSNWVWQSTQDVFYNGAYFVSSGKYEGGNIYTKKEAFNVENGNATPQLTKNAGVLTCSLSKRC
Experiment: Function test of the sample to cedar pollen allergen (Cry j1): allergen adsorption, supernatant measured by sandwich ELISA
Assay type: binding
Experimental: A 1% (by weight/volume) sample solution was prepared from each of the compounds synthesized in Examples 1 to 5, an allergen (Cry j1) dissolved into a phosphate buffer solution was added into the sample solution so as to give 100 ng/mL of the concentration thereof, and then, they were mixed by using a vortex; thereafter, reaction was carried out with shaking the mixture at 4° C. The solution was recovered at the respective predetermined intervals ([…]); and a supernatant thereof after centrifugal separation was analyzed as to the allergen concentration (A) by using a sandwich ELISA method (Enzyme-Linked Immunosorbent Assay). […] Reduction rate (%)=(B−A)/B×100
Specific procedure of the sandwich ELISA method will now be described. Anti-Cry j1 antibody is immobilized in each well of a microplate; and after cleaning it, post coating thereof is conducted. After further cleaning, a sample solution or a standard allergen solution is added thereinto to carry out a primary reaction. After cleaning thereof, an anti-Cry j1 biotin-labeled antibody is added thereinto to carry out a secondary reaction. After further cleaning thereof, an enzyme reagent streptavidin HRP is added thereinto; and after cleaning thereof, an o-phenylenedimaine substrate is added thereinto to carry out a chromogenic reaction. After termination of the reaction by adding dilute sulfuric acid, absorbance at the wavelength of 490 nm is measured by using a microplate reader. From a calibration curve predetermined by using the standard allergen solution, allergen concentration in each sample solution is obtained.

[1] = 1% (w/v) sample solution, 100 ng/mL Cry j1, 4° C., at 5 minutes

Row | Substance | allergen reduction rate (conditions similar to Test Example 1, after 60 minutes) [%] | allergen reduction rate [1] [%]
1 | C60(OH)44.8H2O [reference compound] | 6.2 | –
2 | C60Cl5 (OH)15.5H2O [Example 4] | – | 90
3 | C60Cl15(OH)15.9H2O [Example 3] | – | 90

Reference: patent US8987526B2, “Partially halogenated, hydroxylated fullerene and allergen adsorbent using the same” (Osaka University, priority 2010, dated 2015)
